Assay results reported in ChEMBL document CHEMBL4680315, “Synthesis and anticancer potential of novel 5,6-oxygenated and/or halogenated steroidal d-homo lactones” (Bioorg Med Chem, 2021).
Activity calls are given as the source filed them. The rule behind the calls is not given here.

Tests used:
[1] = test system: MCF7; experiment: Cytotoxicity activity against human MCF7 assessed as inhibition of cell growth measured after 72 hrs by MTT assay; type: functional, cell-based; conditions: MCF7, 72 h
[2] = test system: MDA-MB-231; experiment: Cytotoxicity against human MDA-MB-231 cells assessed as cell growth inhibition measured after 72 hrs by MTT assay; type: functional, cell-based; conditions: MDA-MB-231, 72 h
[3] = test system: PC-3; experiment: Cytotoxicity against human PC-3 cells assessed as cell growth inhibition measured after 72 hrs by MTT assay; type: functional, cell-based; conditions: PC-3, 72 h
[4] = test system: HeLa; experiment: Cytotoxicity against human Hela cells assessed as cell growth inhibition measured after 72 hrs by MTT assay; type: functional, cell-based
[5] = test system: HT-29; experiment: Cytotoxicity against human HT-29 cells assessed as cell growth inhibition measured after 72 hrs by MTT assay; type: functional, cell-based; conditions: HT-29, 72 h
[6] = test system: A549; experiment: Cytotoxicity against human A549 cells assessed as cell growth inhibition measured after 72 hrs by MTT assay; type: functional, cell-based; conditions: A549, 72 h
[7] = test system: MRC5; experiment: Cytotoxicity against human MRC5 cells assessed as cell growth inhibition measured after 72 hrs by MTT assay; type: cell-based; conditions: MRC5, 72 h
[8] = test system: MDA-MB-231; experiment: Induction of apoptosis in human MDA-MB-231 cells assessed as late apoptotic cells by measuring red colour signal measured after 72 hrs by fluorescent double-staining method; type: functional, cell-based
[9] = test system: HT-29; experiment: Induction of apoptosis in human HT-29 cells assessed as late apoptotic cells by measuring red colour signal measured after 72 hrs by fluorescent double-staining method; type: functional, cell-based
[10] = test system: A549; experiment: Induction of apoptosis in human A549 cells assessed as late apoptotic cells by measuring red colour signal measured after 72 hrs by fluorescent double-staining method; type: functional, cell-based
[11] = target: Estrogen receptor beta (Homo sapiens) (UniProt Q92731); experiment: Binding affinity to EYFP-tagged human ERbeta-LBD expressed in Saccharomyces cerevisiae FY250 strain assessed as fluorescence intensity at 10 uM incubated for 14 to 16 hrs by fluorescence spectroscopy based fluorescence microscopy relative to control; conditions: time 14-16 hrs
[12] = target: T1, Estrogen receptor (Homo sapiens) (UniProt P03372); experiment: Binding affinity to EYFP-tagged human ERalpha-LBD expressed in Saccharomyces cerevisiae FY250 strain assessed as fluorescence intensity at 10 uM incubated for 14 to 16 hrs by fluorescence spectroscopy based fluorescence microscopy relative to control; conditions: time 14-16 hrs
T1 sequence (whole entry): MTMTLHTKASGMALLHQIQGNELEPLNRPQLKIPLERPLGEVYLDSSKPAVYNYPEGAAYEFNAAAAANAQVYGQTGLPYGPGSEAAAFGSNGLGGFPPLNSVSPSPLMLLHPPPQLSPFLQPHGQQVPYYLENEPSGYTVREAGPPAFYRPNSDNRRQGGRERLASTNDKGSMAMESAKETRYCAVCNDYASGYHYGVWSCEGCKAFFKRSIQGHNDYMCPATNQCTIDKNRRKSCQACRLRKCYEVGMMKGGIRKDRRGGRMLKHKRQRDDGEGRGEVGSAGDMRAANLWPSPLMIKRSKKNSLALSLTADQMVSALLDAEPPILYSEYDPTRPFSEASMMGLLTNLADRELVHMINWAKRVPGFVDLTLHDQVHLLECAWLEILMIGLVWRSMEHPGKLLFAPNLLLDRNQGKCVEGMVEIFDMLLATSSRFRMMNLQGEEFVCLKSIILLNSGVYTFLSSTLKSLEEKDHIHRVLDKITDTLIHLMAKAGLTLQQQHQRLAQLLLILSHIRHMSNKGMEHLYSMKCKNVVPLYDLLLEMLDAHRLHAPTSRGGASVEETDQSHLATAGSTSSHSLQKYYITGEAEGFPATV

Chain of Estrogen receptor beta (Homo sapiens) (Q92731 whole entry, the tested form may be a part): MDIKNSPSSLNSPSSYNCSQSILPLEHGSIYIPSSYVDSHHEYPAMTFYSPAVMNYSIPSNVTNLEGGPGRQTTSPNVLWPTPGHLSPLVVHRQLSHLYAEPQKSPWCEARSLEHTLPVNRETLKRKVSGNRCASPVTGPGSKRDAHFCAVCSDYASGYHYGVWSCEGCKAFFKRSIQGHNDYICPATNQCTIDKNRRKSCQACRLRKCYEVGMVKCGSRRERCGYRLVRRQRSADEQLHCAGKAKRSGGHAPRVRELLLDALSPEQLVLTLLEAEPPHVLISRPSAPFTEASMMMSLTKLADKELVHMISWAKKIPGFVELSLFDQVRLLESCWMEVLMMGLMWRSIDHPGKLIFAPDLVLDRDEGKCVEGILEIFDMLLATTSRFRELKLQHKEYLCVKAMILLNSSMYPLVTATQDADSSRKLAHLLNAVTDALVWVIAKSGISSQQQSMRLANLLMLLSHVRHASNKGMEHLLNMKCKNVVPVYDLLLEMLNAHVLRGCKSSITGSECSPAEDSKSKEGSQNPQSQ

Row | SMILES | IC50 [1] | IC50 [2] | IC50 [3] | IC50 [4] | IC50 [5] | IC50 [6] | IC50 [7] | Activity [8] | Activity [9] | Activity [10] | Activity [11] | Activity [12]
1 | CC(=O)O[C@H]1CC[C@]2(C)[C@H]3CC[C@]4(C)COC(=O)C[C@H]4[C@@H]3C[C@@H](O)[C@@]2(Br)C1 | 86.6 µM | 26.5 µM | > 100 µM | 13.6 µM | > 100 µM | 26.1 µM | > 100 µM | Active | – | – | – | –
2 | CO[C@]12C[C@@H](O)CC[C@]1(C)[C@H]1CC[C@]3(C)COC(=O)C[C@H]3[C@@H]1C[C@H]2O | > 100 µM | 4.4 µM | 24.8 µM | 7.06 µM | > 100 µM | > 100 µM | > 100 µM | Active | – | – | – | –
3 | CC(=O)O[C@H]1CC[C@]2(C)[C@H]3CC[C@]4(C)COC(=O)C[C@H]4[C@@H]3C[C@@H](Cl)[C@@]2(Cl)C1 | > 100 µM | 23.7 µM | > 100 µM | 25.9 µM | 10.8 µM | 15.5 µM | > 100 µM | Active | Active | Active | – | –
4 | C[C@]12CC[C@H]3[C@@H](C[C@@H](O)[C@@]4(O)C[C@@H](O)CC[C@]34C)[C@@H]1CC(=O)OC2 | 8.62 µM | 13.8 µM | > 100 µM | 93.6 µM | 9.34 µM | 0.99 µM | > 100 µM | Active | Active | Active | – | –
5 | C[C@]12CC[C@H]3[C@@H](CC(=O)[C@@]4(O)C[C@@H](O)CC[C@]34C)[C@@H]1CC(=O)OC2 | > 100 µM | 6.16 µM | > 100 µM | 33.6 µM | > 100 µM | > 100 µM | > 100 µM | Active | – | – | – | –
6 | COc1cccc2c1C(=O)c1c(O)c3c(c(O)c1C2=O)C[C@@](O)(C(=O)CO)C[C@@H]3O[C@H]1C[C@H](N)[C@H](O)[C@H](C)O1 [DOXORUBICIN] | – | – | 84.2 µM | – | – | > 100 µM | 0.24 µM | – | – | – | – | –
7 | CC(=O)O[C@H]1CC[C@]2(C)[C@H]3CC[C@]4(C)COC(=O)C[C@H]4[C@@H]3C[C@@H](O)[C@@]2(O)C1 | > 100 µM | > 100 µM | > 100 µM | > 100 µM | 86.6 µM | > 100 µM | > 100 µM | – | – | – | Active | –
8 | CC(=O)O[C@H]1CC[C@]2(C)[C@H]3CC[C@]4(C)COC(=O)C[C@H]4[C@@H]3C[C@@H](O)[C@@]2(F)C1 | 42.9 µM | 9.1 µM | > 100 µM | > 100 µM | 21.2 µM | > 100 µM | > 100 µM | Active | – | – | Active | –
9 | CC(=O)O[C@H]1CC[C@]2(C)[C@H]3CC[C@]4(C)COC(=O)C[C@H]4[C@@H]3C[C@H]3O[C@]32C1 | 100 µM | 33.9 µM | > 100 µM | 16.9 µM | 14 µM | > 100 µM | > 100 µM | Active | – | – | – | Active
10 | C[C@]12CCC(=O)C(O)=C1CC[C@@H]1[C@@H]2CC[C@]2(C)C(=O)CC[C@@H]12 [FORMESTANE] | > 100 µM | – | 26.4 µM | 3.36 µM | > 100 µM | 38.6 µM | 0.1 µM | – | – | – | – | –
11 | CC(=O)O[C@H]1CC[C@]2(C)[C@H]3CC[C@]4(C)COC(=O)C[C@H]4[C@@H]3C[C@@H]3O[C@@]32C1 | > 100 µM | 6.16 µM | > 100 µM | 99.2 µM | > 100 µM | > 100 µM | > 100 µM | Active | – | – | – | –
12 | CO[C@@H]1C[C@H]2[C@@H]3CC(=O)OC[C@@]3(C)CC[C@@H]2[C@@]2(C)CC[C@H](O)C[C@]12O | 73.6 µM | 3.38 µM | 10.8 µM | 27 µM | > 100 µM | > 100 µM | > 100 µM | Active | – | – | – | –
13 | CC(=O)O[C@H]1CC[C@]2(C)[C@H]3CC[C@]4(C)COC(=O)C[C@H]4[C@@H]3C[C@H](Br)[C@]2(O)C1 | 12.9 µM | > 100 µM | > 100 µM | > 100 µM | > 100 µM | > 100 µM | > 100 µM | – | – | – | – | –
14 | CC(=O)O[C@H]1CC[C@]2(C)[C@H]3CC[C@]4(C)COC(=O)C[C@H]4[C@@H]3C[C@@H](O)[C@@]2(Cl)C1 | > 100 µM | > 100 µM | > 100 µM | 36.9 µM | 72.3 µM | > 100 µM | > 100 µM | – | – | – | – | –
15 | CC(=O)O[C@H]1CC[C@]2(C)[C@H]3CC[C@]4(C)COC(=O)C[C@H]4[C@@H]3C[C@@H](OC(C)=O)[C@@]2(O)C1 | 12.7 µM | 31 µM | 6.6 µM | 8.66 µM | > 100 µM | > 100 µM | > 100 µM | Active | – | – | – | –
16 | CC(=O)O[C@H]1CC[C@]2(C)[C@H]3CC[C@]4(C)COC(=O)C[C@H]4[C@@H]3C[C@@H](Br)[C@@]2(Br)C1 | 34.9 µM | 13.3 µM | > 100 µM | 9.46 µM | 16.2 µM | 36.9 µM | > 100 µM | Active | – | Active | – | Active
17 | CC(=O)O[C@H]1CC[C@]2(C)[C@H]3CC[C@]4(C)COC(=O)C[C@H]4[C@@H]3CC(=O)[C@@]2(O)C1 | 81.8 µM | 23.7 µM | > 100 µM | > 100 µM | > 100 µM | > 100 µM | > 100 µM | Active | – | – | – | –
18 | C[C@]12CC[C@H]3[C@@H](CC(=O)[C@@]4(O)CC(=O)CC[C@]34C)[C@@H]1CC(=O)OC2 | > 100 µM | 4.81 µM | > 100 µM | 40.1 µM | 42.2 µM | > 100 µM | > 100 µM | Active | – | – | – | Active
